Experiments:
Format in all cases: in vivo
Conditions in all cases: applied at 125 g/ha, evaluated after 13 days
[1] = system: Abutilon theophrasti (ABUTH); test: Pre-emergence herbicidal glasshouse test (Table B1)
Summary of the method: (§1)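 Plants were grown in standard soil under controlled glasshouse conditions (24/16° C, 14 hours light, 65% humidity) and treated by spraying at 500 g/h unless otherwise indicated. Percentage damage was evaluated after 13 days and expressed on a five-point scale.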

[2] = system: Amaranthus retoflexus (AMARE); test: as above
Summary of the method: as §1

Setaria faberi (SETFA) [3] = test: as above
Summary of the method: as §1

[4] = system: Ipomoea hederacea (IPOHE); test: as above
Summary of the method: as §1

[5] = system: Echinochloa crus-galh (ECHCG); test: as above
Summary of the method: as §1

[6] = system: Abutilon theophrasti (ABUTH); test: Post-emergence herbicidal glasshouse test (Table B1)
Summary of the method: as §1

[7] = system: Amaranthus retoflexus (AMARE); test: as above
Summary of the method: as §1

Setaria faberi (SETFA) [8] = test: as above
Summary of the method: as §1

[9] = system: Ipomoea hederacea (IPOHE); test: as above
Summary of the method: as §1

[10] = system: Echinochloa crus-galh (ECHCG); test: as above
Summary of the method: as §1

| SMILES | PRE Application ABUTH, percentage damage on five-point scale [1] | PRE Application AMARE, percentage damage on five-point scale [2] | PRE Application SETFA, percentage damage on five-point scale (Setaria faberi (SETFA) [3]) | PRE Application IPOHE, percentage damage on five-point scale [4] | PRE Application ECHCG, percentage damage on five-point scale [5] | POST Application ABUTH, percentage damage on five-point scale [6] | POST Application AMARE, percentage damage on five-point scale [7] | POST Application SETFA, percentage damage on five-point scale (Setaria faberi (SETFA) [8]) | POST Application IPOHE, percentage damage on five-point scale [9] | POST Application ECHCG, percentage damage on five-point scale [10] |
| --- | --- | --- | --- | --- | --- | --- | --- | --- | --- | --- |
| Cn1nnnc1NC(=O)c1ccc(OC(F)F)c(NC(=O)C2CC2(F)F)c1Cl (stereo not shown) [Compound 1.035] | 5 (5=80-100%) | 5 (5=80-100%) | 4 (4=60-79%) | 3 (3=40-59%) | 3 (3=40-59%) | 4 (4=60-79%) | 4 (4=60-79%) | 4 (4=60-79%) | 4 (4=60-79%) | 4 (4=60-79%) |
| Cn1nnnc1NC(=O)c1ccc(OC(F)F)c(NC(=O)CC2CC2)c1Cl [Compound 1.036] | 5 (5=80-100%) | 5 (5=80-100%) | 5 (5=80-100%) | 4 (4=60-79%) | 5 (5=80-100%) | 5 (5=80-100%) | 5 (5=80-100%) | 5 (5=80-100%) | 4 (4=60-79%) | 5 (5=80-100%) |
| CN(C(=O)CC1CC1)c1c(OC(F)F)ccc(C(=O)Nc2nnnn2C)c1Cl [Compound 1.037] | 5 (5=80-100%) | 5 (5=80-100%) | 4 (4=60-79%) | 4 (4=60-79%) | 5 (5=80-100%) | 5 (5=80-100%) | 5 (5=80-100%) | 5 (5=80-100%) | 4 (4=60-79%) | 5 (5=80-100%) |
| Cc1cc(C(=O)Nc2c(OC(F)F)ccc(C(=O)Nc3nnnn3C)c2Cl)no1 [Compound 1.044] | 4 (4=60-79%) | 4 (4=60-79%) | 2 (2=20-39%) | 1 (1=0-19%) | 2 (2=20-39%) | 3 (3=40-59%) | 5 (5=80-100%) | 3 (3=40-59%) | 4 (4=60-79%) | 2 (2=20-39%) |
| COC(C)C(=O)Nc1c(OC(F)(F)F)ccc(C(=O)Nc2nnnn2C)c1Cl (stereo not shown) [Compound 1.063] | 5 (5=80-100%) | 5 (5=80-100%) | 5 (5=80-100%) | 5 (5=80-100%) | 5 (5=80-100%) | 5 (5=80-100%) | 5 (5=80-100%) | 5 (5=80-100%) | 4 (4=60-79%) | 5 (5=80-100%) |
| CCOC(C)C(=O)Nc1c(OC(F)(F)F)ccc(C(=O)Nc2nnnn2C)c1Cl (stereo not shown) [Compound 1.065] | 5 (5=80-100%) | 5 (5=80-100%) | 5 (5=80-100%) | 5 (5=80-100%) | 5 (5=80-100%) | 5 (5=80-100%) | 5 (5=80-100%) | 5 (5=80-100%) | 5 (5=80-100%) | 5 (5=80-100%) |
| CCC(=O)Nc1c(OC(F)(F)F)ccc(C(=O)Nc2nnnn2C)c1C(F)(F)F [Compound 1.082] | 5 (5=80-100%) | 5 (5=80-100%) | 4 (4=60-79%) | 3 (3=40-59%) | 5 (5=80-100%) | 4 (4=60-79%) | 4 (4=60-79%) | 4 (4=60-79%) | 4 (4=60-79%) | 3 (3=40-59%) |
| Cn1nnnc1NC(=O)c1ccc(OC(F)F)c(NC(=O)c2ccc(C(F)(F)F)cn2)c1Cl [Compound 1.084] | 4 (4=60-79%) | 5 (5=80-100%) | 1 (1=0-19%) | 1 (1=0-19%) | 1 (1=0-19%) | 5 (5=80-100%) | 4 (4=60-79%) | 3 (3=40-59%) | 3 (3=40-59%) | 3 (3=40-59%) |
| CC(=O)Nc1c(OC(F)F)ccc(C(=O)Nc2nnnn2C)c1Cl [Compound 1.090] | 5 (5=80-100%) | 5 (5=80-100%) | 4 (4=60-79%) | 4 (4=60-79%) | 5 (5=80-100%) | 4 (4=60-79%) | 4 (4=60-79%) | 4 (4=60-79%) | 4 (4=60-79%) | 4 (4=60-79%) |
| Cc1cccnc1C(=O)Nc1c(OC(F)F)ccc(C(=O)Nc2nnnn2C)c1Cl [Compound 1.093] | 5 (5=80-100%) | 5 (5=80-100%) | 4 (4=60-79%) | 4 (4=60-79%) | 5 (5=80-100%) | 4 (4=60-79%) | 4 (4=60-79%) | 4 (4=60-79%) | 4 (4=60-79%) | 5 (5=80-100%) |
| Cc1c(C(=O)Nc2c(OC(F)F)ccc(C(=O)Nc3nnnn3C)c2Cl)nn(C)c1C [Compound 1.098] | 4 (4=60-79%) | 3 (3=40-59%) | 4 (4=60-79%) | 4 (4=60-79%) | 1 (1=0-19%) | 4 (4=60-79%) | 4 (4=60-79%) | 4 (4=60-79%) | 4 (4=60-79%) | 4 (4=60-79%) |
| Cn1nnnc1NC(=O)c1ccc(OC(F)F)c(NC(=O)c2ccc(F)cc2)c1Cl [Compound 1.099] | 4 (4=60-79%) | 5 (5=80-100%) | 1 (1=0-19%) | 3 (3=40-59%) | 1 (1=0-19%) | 4 (4=60-79%) | 4 (4=60-79%) | 3 (3=40-59%) | 4 (4=60-79%) | 4 (4=60-79%) |
| Cn1nnnc1NC(=O)c1ccc(OC(F)F)c(NC(=O)c2ncccc2F)c1Cl [Compound 1.100] | 5 (5=80-100%) | 5 (5=80-100%) | 3 (3=40-59%) | 2 (2=20-39%) | 1 (1=0-19%) | 4 (4=60-79%) | 4 (4=60-79%) | 4 (4=60-79%) | 4 (4=60-79%) | 4 (4=60-79%) |
